In the NIST ThermoML archive (doi:10.1016/j.jct.2011.10.023):
± gives the expanded uncertainty stated by the source.

Conditions: Liquid, Vibrating tube method

CCCCCCO [hexan-1-ol]
mass density [kg/m3]
Conditions	278.15 K	288.15 K	298.15 K	308.15 K	318.15 K	328.15 K	338.15 K	348.15 K	358.15 K
100 kPa	828.9 ± 2.4	822.1 ± 2.4	814.9 ± 2.4	807.8 ± 2.4	800.5 ± 2.4	793 ± 2.4	785.4 ± 2.4	777.6 ± 2.4	769.4 ± 2.4
1000 kPa	829.5 ± 2.4	822.7 ± 2.4	815.6 ± 2.4	808.4 ± 2.4	801.2 ± 2.4	793.7 ± 2.4	786.2 ± 2.4	778.4 ± 2.4	770 ± 2.4
5000 kPa	832 ± 2.4	825.3 ± 2.4	818.4 ± 2.4	811.4 ± 2.4	804.3 ± 2.4	797 ± 2.4	789.6 ± 2.4	782 ± 2.4	774.2 ± 2.4
10000 kPa	835 ± 2.4	828.5 ± 2.4	821.7 ± 2.4	814.8 ± 2.4	807.9 ± 2.4	800.8 ± 2.4	793.6 ± 2.4	786.2 ± 2.4	778.6 ± 2.4
15000 kPa	838 ± 2.4	831.6 ± 2.4	824.9 ± 2.4	818.2 ± 2.4	811.4 ± 2.4	804.4 ± 2.4	797.4 ± 2.4	790.2 ± 2.4	782.8 ± 2.4
20000 kPa	840.8 ± 2.4	834.6 ± 2.4	828 ± 2.4	821.4 ± 2.4	814.7 ± 2.4	807.9 ± 2.4	801 ± 2.4	794.1 ± 2.4	786.9 ± 2.4
25000 kPa	843.6 ± 2.4	837.4 ± 2.4	830.9 ± 2.4	824.5 ± 2.4	817.9 ± 2.4	811.2 ± 2.4	804.5 ± 2.4	797.6 ± 2.4	790.7 ± 2.4
30000 kPa	846.3 ± 2.4	840.2 ± 2.4	833.8 ± 2.4	827.5 ± 2.4	821 ± 2.4	814.4 ± 2.4	807.9 ± 2.4	801.2 ± 2.4	794.3 ± 2.4
35000 kPa	848.9 ± 2.4	842.9 ± 2.4	836.6 ± 2.4	830.3 ± 2.4	824 ± 2.4	817.6 ± 2.4	811.1 ± 2.4	804.6 ± 2.4	797.9 ± 2.4
40000 kPa	851.4 ± 2.4	845.5 ± 2.4	839.4 ± 2.4	833.2 ± 2.4	826.9 ± 2.4	820.6 ± 2.4	814.2 ± 2.4	807.8 ± 2.4	801.3 ± 2.5
45000 kPa	853.9 ± 2.4	848 ± 2.4	842 ± 2.4	835.9 ± 2.4	829.7 ± 2.4	823.5 ± 2.5	817.3 ± 2.5	811 ± 2.5	804.6 ± 2.5
50000 kPa	856.3 ± 2.4	850.5 ± 2.4	844.6 ± 2.5	838.5 ± 2.5	832.4 ± 2.5	826.4 ± 2.5	820.2 ± 2.5	814 ± 2.5	807.7 ± 2.5
55000 kPa	858.7 ± 2.4	853 ± 2.5	847.1 ± 2.5	841.1 ± 2.5	835.1 ± 2.5	829.1 ± 2.5	823.1 ± 2.5	817 ± 2.5	810.8 ± 2.5
60000 kPa	860.9 ± 2.5	855.4 ± 2.5	849.6 ± 2.5	843.5 ± 2.5	837.7 ± 2.5	831.6 ± 2.5	825.7 ± 2.5	819.7 ± 2.5	813.5 ± 2.5
